Molecular target: human plasma protein factor Xa (Homo sapiens (Human), UniProt P00742)
Experiment: FXa inhibitory activity, IC50 determination (cleavage of paranitroanilide substrate S-2765)
Type: biochemical
Settings: factor Xa 1 nM, S2765 100 μM, Tris buffered saline pH 7.4
Source text: This example illustrates methods for evaluating the compounds, along with results obtained for such assays. As mentioned above, the compound may be selected based on its factor Xa inhibitory activity. The in vitro factor Xa activities of the compounds can be determined by various procedures known in the art. […] The IC50 value is the concentration (in nM) of the compound required to provide 50% inhibition of factor Xa proteolytic activity.
An in vitro assay for detecting and measuring inhibition activity against factor Xa is as follows:
The substrate S-2765 (Z-D-Arg-Gly-Arg-pNA.HCl) can be obtained from Diapharma (West Chester, Ohio).
The human plasma protein factor Xa can be purchased from Haematologic Technologies (Essex Junction, Vt.).
All assays, which are performed in 96-well microtiter plates, measure proteolytic activity of the enzyme (factor Xa) by following cleavage of a paranitroanilide peptide substrate. The assay buffer used for proteolytic assays was Tris buffered saline (20 mM Tris, 150 mM NaCl, 5 mM CaCl2, 0.1% Bovine serum albumin (BSA), 5% dimethly sulfoxide (DMSO) pH 7.4). In a 96-well microtiter plate, inhibitor was serially diluted to give a range of final concentrations from 0.01 nM to 10 μM. Duplicate sets of wells were assayed and control wells without inhibitor were included. Enzyme was added to each well, (factor Xa concentration=1 nM), the plate was shaken for 5 seconds and then incubated for 5 minutes at room temperature. S2765 was added (100 μM final) and the plate was shaken for 5 seconds (final volume in each well was 200 μL). The degree of substrate hydrolysis was measured at 405 nm on a Thermomax plate reader (Molecular Devices, Sunnyvale, Calif.) for 2 minutes. The initial velocities of substrate cleavage (mOD/min), for each range of inhibitor concentrations, were fitted to a four parameter equation using Softmax data analysis software. The parameter C, derived from the resulting curve-fit, corresponded to the concentration for half maximal inhibition (IC50).

human plasma protein factor Xa, sequence (P00742 41-179): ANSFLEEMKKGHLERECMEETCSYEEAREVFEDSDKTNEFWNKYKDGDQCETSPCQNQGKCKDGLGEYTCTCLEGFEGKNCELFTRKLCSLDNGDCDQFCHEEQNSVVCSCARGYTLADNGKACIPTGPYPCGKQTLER
human plasma protein factor Xa, sequence (P00742 235-488): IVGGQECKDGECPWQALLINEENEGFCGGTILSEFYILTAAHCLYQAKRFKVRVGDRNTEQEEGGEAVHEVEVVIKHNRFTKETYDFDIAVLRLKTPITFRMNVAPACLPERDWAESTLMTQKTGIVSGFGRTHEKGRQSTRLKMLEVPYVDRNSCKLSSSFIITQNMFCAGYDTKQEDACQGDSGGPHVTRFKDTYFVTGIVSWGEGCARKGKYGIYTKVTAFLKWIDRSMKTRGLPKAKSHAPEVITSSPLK

Row | Compound | IC50
1 | NCCCCCCNc1cc(C(F)(F)F)ccc1C(=O)Nc1ccc(Cl)cc1C(=O)Nc1ccc(Cl)cn1 | 615 nM
2 | CS(=O)(=O)c1ccc(C(=O)Nc2ccc(Cl)cc2C(=O)Nc2ccc(Cl)cn2)c(NCCCCCCCN)c1 | 320 nM
3 | CN(C)C(=N)c1ccc(C(=O)Nc2ccc(OCC(=O)NCCCCCCN)cc2C(=O)Nc2ccccn2)cc1 | 227 nM

Stronger by IC50, values ahead:

Row | IC50 | Compound
4 | 158 nM | CS(=O)(=O)c1ccc(C(=O)Nc2ccc(Cl)cc2C(=O)Nc2ccc(Cl)cn2)c(NCCCCCCN)c1
5 | 24 nM | CN(C)C(=N)c1ccc(C(=O)Nc2ccc(OCC(=O)NCCCCCCN)cc2C(=O)Nc2ccc(Cl)cn2)cc1
